Assay results: patent publication US8404708B2, “Dual NK1/NK3 receptor antagonists” (Hoffmann-La Roche Inc., priority 2004, dated 2013)

Columns and labels:
[1] = biological target: T1, Recombinant human NK3 (hNK3) receptor (Homo sapiens, UniProt P29371); experiment: NK3 receptor binding, [3H]SR142801 displacement, membrane preparations; conditions: second value of the cell pKi NK1/NK3; hNK3 receptor, [3H]SR142801
T1 construct: expressed in transfected cells
T1 sequence (P29371 1-465): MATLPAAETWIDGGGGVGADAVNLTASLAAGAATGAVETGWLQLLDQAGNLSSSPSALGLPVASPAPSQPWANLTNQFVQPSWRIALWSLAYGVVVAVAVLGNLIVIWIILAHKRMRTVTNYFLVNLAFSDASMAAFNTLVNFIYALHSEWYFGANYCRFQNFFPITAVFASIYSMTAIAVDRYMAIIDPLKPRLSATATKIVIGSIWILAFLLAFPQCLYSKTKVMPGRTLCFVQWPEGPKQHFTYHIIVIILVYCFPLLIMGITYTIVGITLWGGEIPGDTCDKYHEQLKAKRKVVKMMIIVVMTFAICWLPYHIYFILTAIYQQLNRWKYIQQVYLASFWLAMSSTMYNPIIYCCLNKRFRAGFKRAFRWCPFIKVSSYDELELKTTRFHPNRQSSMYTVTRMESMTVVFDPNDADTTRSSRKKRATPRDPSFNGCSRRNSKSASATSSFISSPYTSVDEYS
Method in brief: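 hNK3 membranes (~2.5 μg/well) incubated 90 min at room temperature in 50 mM Tris-HCl pH 7.4 with 0.1% BSA, 4 mM MnCl2, 1 μM phosphoramidon. Nonspecific binding defined with 10 μM SB222200; bound [3H]SR142801 separated by filtration on PEI-soaked GF/C filters and counted by scintillation.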

human NK1 receptor = human NK1 receptor (Homo sapiens, UniProt P25103); experiment: NK1 receptor binding, [3H]substance P displacement, CHO cell membranes; conditions: first value of the cell pKi NK1/NK3; human NK1 receptor, [3H]substance P
human NK1 receptor, sequence (P25103 whole entry): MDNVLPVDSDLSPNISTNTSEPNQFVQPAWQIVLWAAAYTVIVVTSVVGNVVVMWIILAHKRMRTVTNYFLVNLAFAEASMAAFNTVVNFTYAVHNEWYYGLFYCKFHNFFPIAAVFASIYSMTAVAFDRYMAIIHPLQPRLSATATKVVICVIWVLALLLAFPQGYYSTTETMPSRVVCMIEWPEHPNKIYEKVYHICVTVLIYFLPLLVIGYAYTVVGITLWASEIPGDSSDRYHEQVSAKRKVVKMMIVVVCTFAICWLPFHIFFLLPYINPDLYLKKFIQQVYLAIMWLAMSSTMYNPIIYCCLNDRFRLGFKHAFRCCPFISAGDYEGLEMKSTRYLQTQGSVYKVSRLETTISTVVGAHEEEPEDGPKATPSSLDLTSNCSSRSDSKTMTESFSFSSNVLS

Ki [1] [nM] | Ki (human NK1 receptor) [nM] | SMILES
18.6 | 2.09 | Cc1cc(F)ccc1-c1cc(N2CC(O)C2)ncc1N(C)C(=O)C(C)(C)c1cc(C(F)(F)F)cc(C(F)(F)F)c1 [Example 162, 2-(3,5-Bis-trifluoromethyl-phenyl)-N-[4-(4-fluoro-2-methyl-phenyl)-6-(3-hydroxy-azetidin-1-yl)-pyridin-3-yl]-N-methyl-isobutyramide]
28.2 | 1.82 | Cc1ccccc1-c1cc(N2CC(O)C2)ncc1N(C)C(=O)C(C)(C)c1cc(C(F)(F)F)cc(C(F)(F)F)c1 [Example 163, 2-(3,5-Bis-trifluoromethyl-phenyl)-N-[6-(3-hydroxy-azetidin-1-yl)-4-o-tolyl-pyridin-3-yl]-N-methyl-isobutyramide]
10 | 2.09 | Cc1ccccc1-c1cc(N2CCC[C@@H]2CO)ncc1N(C)C(=O)C(C)(C)c1cc(C(F)(F)F)cc(C(F)(F)F)c1 [Example 168, (R)-2-(3,5-Bis-trifluoromethyl-phenyl)-N-[6-(2-hydroxymethyl-pyrrolidin-1-yl)-4-o-tolyl-pyridin-3-yl]-N-methyl-isobutyramide]
12.9 | 7.08 | Cc1ccccc1-c1cc(N2CCC(CO)CC2)ncc1N(C)C(=O)C(C)(C)c1cc(C(F)(F)F)cc(C(F)(F)F)c1 [Example 172, 2-(3,5-Bis-trifluoromethyl-phenyl)-N-(4-hydroxymethyl-4′-o-tolyl-3,4,5,6-tetrahydro-2H-[1,2′]bipyridinyl-5′-yl)-N-methyl-isobutyramide]
1.86 | 1.91 | Cc1ccccc1-c1cc(NC[C@@H](C)O)ncc1N(C)C(=O)C(C)(C)c1cc(C(F)(F)F)cc(C(F)(F)F)c1 [Example 173, (R)-2-(3,5-Bis-trifluoromethyl-phenyl)-N-[6-(2-hydroxy-propylamino)-4-o-tolyl-pyridin-3-yl]-N-methyl-isobutyramide]
2.14 | 1.62 | Cc1ccccc1-c1cc(N2CCOC[C@H]2CO)ncc1N(C)C(=O)C(C)(C)c1cc(C(F)(F)F)cc(C(F)(F)F)c1 [Example 175]
4.07 | 1.51 | Cc1ccccc1-c1cc(N2C[C@H](O)C[C@@H](O)C2)ncc1N(C)C(=O)C(C)(C)c1cc(C(F)(F)F)cc(C(F)(F)F)c1 [Example 179, (3R,5R)-2-(3,5-Bis-trifluoromethyl-phenyl)-N-(3,5-dihydroxy-4′-o-tolyl-3,4,5,6-tetrahydro-2H-[1,2′]bipyridinyl-5′-yl)-N-methyl-isobutyramide]

The remaining lines, values behind:

SMILES | Ki [1] [nM] | Ki (human NK1 receptor) [nM]
CN(C(=O)C(C)(C)c1cc(C(F)(F)F)cc(C(F)(F)F)c1)c1cnc(N[C@@H]2CCC[C@H]2O)cc1-c1ccccc1Cl [Example 152, (1R,2R)-2-(3,5-Bis-trifluoromethyl-phenyl)-N-[4-(2-chloro-phenyl)-6-(2-hydroxy-cyclopentylamino)-pyridin-3-yl]-N-methyl-isobutyramide] | 7.76 | 0.759
CN(C(=O)C(C)(C)c1cc(C(F)(F)F)cc(C(F)(F)F)c1)c1cnc(N[C@H]2CCC[C@@H]2O)cc1-c1ccccc1Cl [Example 153, (1S,2S)-2-(3,5-Bis-trifluoromethyl-phenyl)-N-[4-(2-chloro-phenyl)-6-(2-hydroxy-cyclopentylamino)-pyridin-3-yl]-N-methyl-isobutyramide] | 4.07 | 0.49
Cc1cc(F)ccc1-c1cc(N[C@H]2CCC[C@@H]2O)ncc1N(C)C(=O)C(C)(C)c1cc(C(F)(F)F)cc(C(F)(F)F)c1 [Example 154, (1S,2S)-2-(3,5-Bis-trifluoromethyl-phenyl)-N-[4-(4-fluoro-2-methyl-phenyl)-6-(2-hydroxy-cyclopentylamino)-pyridin-3-yl]-N-methyl-isobutyramide] | 5.75 | 3.16
Cc1cc(F)ccc1-c1cc(N2CC[C@H](O)[C@H]2CO)ncc1N(C)C(=O)C(C)(C)c1cc(C(F)(F)F)cc(C(F)(F)F)c1 [Example 155, (2R,3S)-2-(3,5-Bis-trifluoromethyl-phenyl)-N-[4-(4-fluoro-2-methyl-phenyl)-6-(3-hydroxy-2-hydroxymethyl-pyrrolidin-1-yl)-pyridin-3-yl]-N-methyl-isobutyramide] | 0.871 | 1.74
Cc1cc(F)ccc1-c1cc(N2CC[C@@H](O)[C@H]2CO)ncc1N(C)C(=O)C(C)(C)c1cc(C(F)(F)F)cc(C(F)(F)F)c1 [Example 156, (2R,3R)-2-(3,5-Bis-trifluoromethyl-phenyl)-N-[4-(4-fluoro-2-methyl-phenyl)-6-(3-hydroxy-2-hydroxymethyl-pyrrolidin-1-yl)-pyridin-3-yl]-N-methyl-isobutyramide] | 1.58 | 1.74
Cc1cc(F)ccc1-c1cc(N2CC=C[C@H]2CO)ncc1N(C)C(=O)C(C)(C)c1cc(C(F)(F)F)cc(C(F)(F)F)c1 [Example 157, (S)-2-(3,5-Bis-trifluoromethyl-phenyl)-N-[4-(4-fluoro-2-methyl-phenyl)-6-(2-hydroxymethyl-2,5-dihydro-pyrrol-1-yl)-pyridin-3-yl]-N-methyl-isobutyramide] | 1.58 | 2.51
Cc1cc(F)ccc1-c1cc(N2C[C@H](O)C[C@H]2CO)ncc1N(C)C(=O)C(C)(C)c1cc(C(F)(F)F)cc(C(F)(F)F)c1 [Example 158, (2S,4R)-2-(3,5-Bis-trifluoromethyl-phenyl)-N-[4-(4-fluoro-2-methyl-phenyl)-6-(4-hydroxy-2-hydroxymethyl-pyrrolidin-1-yl)-pyridin-3-yl]-N-methyl-isobutyramide] | 0.955 | 1.66
Cc1cc(F)ccc1-c1cc(N2CCC[C@H]2C(C)(C)O)ncc1N(C)C(=O)C(C)(C)c1cc(C(F)(F)F)cc(C(F)(F)F)c1 [Example 159, (S)-2-(3,5-Bis-trifluoromethyl-phenyl)-N-{4-(4-fluoro-2-methyl-phenyl)-6-[2-(1-hydroxy-1-methyl-ethyl)-pyrrolidin-1-yl]-pyridin-3-yl}-N-methyl-isobutyramide] | 9.55 | 1.78
CN(C(=O)C(C)(C)c1cc(C(F)(F)F)cc(C(F)(F)F)c1)c1cnc(N2CCCC[C@@H]2CO)cc1-c1ccccc1Cl [Example 160, (R)-2-(3,5-Bis-trifluoromethyl-phenyl)-N-[4′-(2-chloro-phenyl)-2-hydroxymethyl-3,4,5,6-tetrahydro-2H-[1,2′]bipyridinyl-5′-yl]-N-methyl-isobutyramide] | 30.2 | 2.04
CN(C(=O)C(C)(C)c1cc(C(F)(F)F)cc(C(F)(F)F)c1)c1cnc(N2CCCC[C@H]2CO)cc1-c1ccccc1Cl [Example 161, (S)-2-(3,5-Bis-trifluoromethyl-phenyl)-N-[4′-(2-chloro-phenyl)-2-hydroxymethyl-3,4,5,6-tetrahydro-2H-[1,2′]bipyridinyl-5′-yl]-N-methyl-isobutyramide] | 6.76 | 11.5
Cc1cc(F)ccc1-c1cc(N2CCNC(=O)CC2)ncc1N(C)C(=O)C(C)(C)c1cc(C(F)(F)F)cc(C(F)(F)F)c1 [Example 164, 2-(3,5-Bis-trifluoromethyl-phenyl)-N-[4-(4-fluoro-2-methyl-phenyl)-6-(5-oxo-[1,4]diazepan-1-yl)-pyridin-3-yl]-N-methyl-isobutyramide] | 15.8 | 1.62
Cc1cc(F)ccc1-c1cc(N2CCC[C@H]2CO)ncc1N(C)C(=O)C(C)(C)c1cc(C(F)(F)F)cc(C(F)(F)F)c1 [Example 165, (S)-2-(3,5-Bis-trifluoromethyl-phenyl)-N-[4-(4-fluoro-2-methyl-phenyl)-6-(2-hydroxymethyl-pyrrolidin-1-yl)-pyridin-3-yl]-N-methyl-isobutyramide] | 1.1 | 2.09
Cc1ccc(F)cc1-c1cc(N2CCC[C@H]2CO)ncc1N(C)C(=O)C(C)(C)c1cc(C(F)(F)F)cc(C(F)(F)F)c1 [Example 166, (S)-2-(3,5-Bis-trifluoromethyl-phenyl)-N-[4-(5-fluoro-2-methyl-phenyl)-6-(2-hydroxymethyl-pyrrolidin-1-yl)-pyridin-3-yl]-N-methyl-isobutyramide] | 1.2 | 3.8
Cc1c(F)cccc1-c1cc(N2CCC[C@H]2CO)ncc1N(C)C(=O)C(C)(C)c1cc(C(F)(F)F)cc(C(F)(F)F)c1 [Example 167, (S)-2-(3,5-Bis-trifluoromethyl-phenyl)-N-[4-(3-fluoro-2-methyl-phenyl)-6-(2-hydroxymethyl-pyrrolidin-1-yl)-pyridin-3-yl]-N-methyl-isobutyramide] | 0.977 | 4.47
Cc1cc(F)ccc1-c1cc(N2CCC[C@H]2CN2CCCC2)ncc1N(C)C(=O)C(C)(C)c1cc(C(F)(F)F)cc(C(F)(F)F)c1 [Example 169, (S)-2-(3,5-Bis-trifluoromethyl-phenyl)-N-[4-(4-fluoro-2-methyl-phenyl)-6-(2-pyrrolidin-1-ylmethyl-pyrrolidin-1-yl)-pyridin-3-yl]-N-methyl-isobutyramide] | 21.4 | 1.41
Cc1cc(F)ccc1-c1cc(N2CCOC[C@H]2CO)ncc1N(C)C(=O)C(C)(C)c1cc(C(F)(F)F)cc(C(F)(F)F)c1 [Example 174, (R)-2-(3,5-Bis-trifluoromethyl-phenyl)-N-[4-(4-fluoro-2-methyl-phenyl)-6-(3-hydroxymethyl-morpholin-4-yl)-pyridin-3-yl]-N-methyl-isobutyramide] | 2.57 | 1.66
